Data reported in paper PMC7101356, “Cross-site and cross-platform variability of automated patch clamp assessments of drug effects on human cardiac currents in recombinant cells” (Scientific Reports, 2020).

Key:
hCav1.2 = hCav1.2 (Homo sapiens, UniProt Q13936); assay: Automated patch clamp, hCav1.2 current block; details: for IC50: log IC50, half-maximal inhibitory concentration
Procedure: Peak current was measured during the step to 0 mV. Leak current was measured after applying a saturating concentration of a blocker such as cadmium (200 µM) at the end of each experiment to completely block hCav1.2 current.
Concentration-response relationships for each test article were independently investigated, i.e., each cell received only one test article, typically evaluating multiple concentrations in a cumulative fashion (lowest to highest concentrations). However, some platforms tested only one concentration per well. Each concentration response was based on a minimum of four concentrations, with a minimum of three wells used for each concentration. In cases of high variability, more cells per concentration were recorded. Prior to drug addition, cells received an addition of vehicle to measure non-test article-related effects such as addition artifacts. At the end of the experiment, a supramaximal concentration of a known inhibitory reference compound was applied to assess leak current and appropriate responsiveness of the test system. While it was recommended that a separate group of cells (n ≥ 3) be recorded for each experimental day to determine the baseline response to vehicle and to address day-to-day variability, this was not verified.
These criteria were applied to all APC platforms.
The steady state current at each concentration was used to determine the concentration-response relationships. Mean concentration-response data were fitted to a standard sigmoidal four-parameter logistic equation (GraphPad Prism 7; GraphPad Inc., La Jolla, CA) of the form: Y=Bottom+(Top−Bottom)/(1+10^∧(LogIC50−X)∗HillSlope) where Y is the current inhibition (in % of pre-drug control), X is the logarithm of drug concentration, and IC50 is the drug concentration producing half-maximal current inhibition. Curve fitting was performed using the following constraints: Top = 100%, Bottom = 0%, Hill Slope <2. No curve fitting was performed in cases with an obvious lack of a concentration-dependent current inhibition and/or small effect size (approximately ≤20%).

hERG = hERG (Homo sapiens, UniProt Q12809); assay: Automated patch clamp, hERG current block (consensus step-ramp protocol); details: for hERG K+ current inhibition, Mean, at maximal concentration: max conc [mol/L]: bep 3.00E-07, cpz 3.00E-06, cis 3.00E-07, dil 1.00E-04, dof 1.00E-07, mex 1.00E-04, ond 1.00E-05, qui 1.00E-05, ran 1.00E-04, sot 3.00E-04, ter 3.00E-07, ver 1.00E-06; for hERG K+ current inhibition, Mean, at minimal concentration: min conc [mol/L]: bep 1.00E-08, cpz 1.00E-07, cis 1.00E-09, dil 3.00E-06, dof 1.00E-09, mex 1.00E-06, ond 3.00E-07, qui 1.00E-07, ran 3.00E-06, sot 1.00E-05, ter 1.00E-08, ver 3.00E-08
Chain of hERG (Q12809 whole entry): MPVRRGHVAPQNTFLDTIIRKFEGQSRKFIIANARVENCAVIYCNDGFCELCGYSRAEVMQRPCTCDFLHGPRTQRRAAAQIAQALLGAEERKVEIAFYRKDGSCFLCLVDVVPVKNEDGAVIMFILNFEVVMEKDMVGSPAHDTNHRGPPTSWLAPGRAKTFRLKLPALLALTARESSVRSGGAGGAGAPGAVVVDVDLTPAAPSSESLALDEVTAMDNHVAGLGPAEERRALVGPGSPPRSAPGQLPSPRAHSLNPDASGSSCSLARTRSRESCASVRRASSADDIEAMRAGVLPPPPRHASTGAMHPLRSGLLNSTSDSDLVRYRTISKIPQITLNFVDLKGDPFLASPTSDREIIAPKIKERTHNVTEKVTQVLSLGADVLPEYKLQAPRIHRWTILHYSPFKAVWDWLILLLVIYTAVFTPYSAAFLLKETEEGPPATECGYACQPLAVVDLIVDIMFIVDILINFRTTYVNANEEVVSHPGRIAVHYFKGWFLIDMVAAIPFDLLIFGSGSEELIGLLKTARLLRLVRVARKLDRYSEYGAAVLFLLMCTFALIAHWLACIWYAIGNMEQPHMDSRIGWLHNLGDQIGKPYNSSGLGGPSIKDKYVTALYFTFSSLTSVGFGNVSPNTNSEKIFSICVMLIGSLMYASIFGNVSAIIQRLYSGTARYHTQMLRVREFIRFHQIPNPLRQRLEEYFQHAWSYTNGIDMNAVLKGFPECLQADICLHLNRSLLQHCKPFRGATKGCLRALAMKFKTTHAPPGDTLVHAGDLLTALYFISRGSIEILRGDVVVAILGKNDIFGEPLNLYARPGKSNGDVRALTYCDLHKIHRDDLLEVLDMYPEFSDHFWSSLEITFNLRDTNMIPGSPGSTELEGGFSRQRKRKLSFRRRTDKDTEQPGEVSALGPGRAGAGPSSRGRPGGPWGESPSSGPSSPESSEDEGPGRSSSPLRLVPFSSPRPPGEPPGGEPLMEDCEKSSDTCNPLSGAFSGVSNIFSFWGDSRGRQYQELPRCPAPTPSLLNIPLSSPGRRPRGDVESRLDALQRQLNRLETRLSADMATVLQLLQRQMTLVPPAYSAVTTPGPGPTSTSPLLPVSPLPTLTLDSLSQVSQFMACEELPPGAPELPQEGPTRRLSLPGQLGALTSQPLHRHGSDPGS

[1] = s03_p2, HEK293, room temperature
[2] = s16_p3, HEK293, room temperature

Chain of hCav1.2 (Q13936 whole entry): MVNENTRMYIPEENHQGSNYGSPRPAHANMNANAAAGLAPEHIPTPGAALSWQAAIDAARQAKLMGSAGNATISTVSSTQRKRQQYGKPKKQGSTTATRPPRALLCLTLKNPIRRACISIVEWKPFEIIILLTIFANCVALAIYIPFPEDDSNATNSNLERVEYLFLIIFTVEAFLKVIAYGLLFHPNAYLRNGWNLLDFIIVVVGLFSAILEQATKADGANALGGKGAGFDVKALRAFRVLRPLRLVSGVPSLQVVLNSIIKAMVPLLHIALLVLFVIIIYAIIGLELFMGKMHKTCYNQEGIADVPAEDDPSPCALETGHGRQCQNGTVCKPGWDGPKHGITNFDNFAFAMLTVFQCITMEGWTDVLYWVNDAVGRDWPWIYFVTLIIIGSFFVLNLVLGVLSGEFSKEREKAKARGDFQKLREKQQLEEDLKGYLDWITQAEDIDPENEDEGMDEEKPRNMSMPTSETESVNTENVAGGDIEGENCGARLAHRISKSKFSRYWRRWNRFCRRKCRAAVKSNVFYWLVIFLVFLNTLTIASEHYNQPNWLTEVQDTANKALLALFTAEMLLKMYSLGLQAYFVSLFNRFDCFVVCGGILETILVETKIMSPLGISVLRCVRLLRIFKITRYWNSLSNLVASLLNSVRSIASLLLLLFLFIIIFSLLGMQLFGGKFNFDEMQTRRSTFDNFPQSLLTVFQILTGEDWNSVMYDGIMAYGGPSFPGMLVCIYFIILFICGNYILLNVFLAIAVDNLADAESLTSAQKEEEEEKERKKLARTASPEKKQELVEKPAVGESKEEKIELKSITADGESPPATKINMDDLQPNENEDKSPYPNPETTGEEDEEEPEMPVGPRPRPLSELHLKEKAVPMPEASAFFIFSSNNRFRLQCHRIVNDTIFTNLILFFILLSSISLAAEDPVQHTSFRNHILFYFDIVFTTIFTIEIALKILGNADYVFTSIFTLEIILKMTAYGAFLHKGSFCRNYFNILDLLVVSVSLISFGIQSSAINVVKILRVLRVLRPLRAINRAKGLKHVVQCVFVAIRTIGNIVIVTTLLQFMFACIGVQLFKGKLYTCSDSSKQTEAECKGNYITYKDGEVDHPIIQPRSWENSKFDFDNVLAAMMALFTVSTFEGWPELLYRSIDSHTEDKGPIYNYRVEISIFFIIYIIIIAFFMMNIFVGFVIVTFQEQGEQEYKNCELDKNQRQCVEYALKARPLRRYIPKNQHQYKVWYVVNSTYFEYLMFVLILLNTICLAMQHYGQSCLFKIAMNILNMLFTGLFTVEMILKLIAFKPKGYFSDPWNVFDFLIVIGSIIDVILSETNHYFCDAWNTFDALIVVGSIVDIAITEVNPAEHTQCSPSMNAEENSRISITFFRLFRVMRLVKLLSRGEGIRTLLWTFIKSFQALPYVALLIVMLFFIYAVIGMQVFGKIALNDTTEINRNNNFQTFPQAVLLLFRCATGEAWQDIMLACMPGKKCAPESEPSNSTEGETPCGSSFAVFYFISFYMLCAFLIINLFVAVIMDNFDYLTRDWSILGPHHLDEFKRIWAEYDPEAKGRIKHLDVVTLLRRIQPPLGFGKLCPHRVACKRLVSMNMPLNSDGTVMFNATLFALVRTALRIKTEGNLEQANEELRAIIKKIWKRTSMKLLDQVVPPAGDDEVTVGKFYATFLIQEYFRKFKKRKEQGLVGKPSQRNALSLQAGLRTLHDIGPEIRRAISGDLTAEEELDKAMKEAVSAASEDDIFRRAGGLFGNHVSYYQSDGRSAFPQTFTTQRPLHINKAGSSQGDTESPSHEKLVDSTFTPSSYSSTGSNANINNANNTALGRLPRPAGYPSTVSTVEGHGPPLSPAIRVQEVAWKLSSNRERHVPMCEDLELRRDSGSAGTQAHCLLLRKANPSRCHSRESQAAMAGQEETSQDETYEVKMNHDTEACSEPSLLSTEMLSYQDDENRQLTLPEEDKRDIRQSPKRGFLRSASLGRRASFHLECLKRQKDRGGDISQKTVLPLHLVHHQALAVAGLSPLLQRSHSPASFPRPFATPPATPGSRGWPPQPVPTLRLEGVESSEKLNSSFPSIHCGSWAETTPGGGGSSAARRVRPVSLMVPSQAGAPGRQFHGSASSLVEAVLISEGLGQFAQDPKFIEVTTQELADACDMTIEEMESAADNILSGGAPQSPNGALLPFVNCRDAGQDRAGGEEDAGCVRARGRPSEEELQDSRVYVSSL
Chain of hCav1.2 (Q08289 whole entry partner): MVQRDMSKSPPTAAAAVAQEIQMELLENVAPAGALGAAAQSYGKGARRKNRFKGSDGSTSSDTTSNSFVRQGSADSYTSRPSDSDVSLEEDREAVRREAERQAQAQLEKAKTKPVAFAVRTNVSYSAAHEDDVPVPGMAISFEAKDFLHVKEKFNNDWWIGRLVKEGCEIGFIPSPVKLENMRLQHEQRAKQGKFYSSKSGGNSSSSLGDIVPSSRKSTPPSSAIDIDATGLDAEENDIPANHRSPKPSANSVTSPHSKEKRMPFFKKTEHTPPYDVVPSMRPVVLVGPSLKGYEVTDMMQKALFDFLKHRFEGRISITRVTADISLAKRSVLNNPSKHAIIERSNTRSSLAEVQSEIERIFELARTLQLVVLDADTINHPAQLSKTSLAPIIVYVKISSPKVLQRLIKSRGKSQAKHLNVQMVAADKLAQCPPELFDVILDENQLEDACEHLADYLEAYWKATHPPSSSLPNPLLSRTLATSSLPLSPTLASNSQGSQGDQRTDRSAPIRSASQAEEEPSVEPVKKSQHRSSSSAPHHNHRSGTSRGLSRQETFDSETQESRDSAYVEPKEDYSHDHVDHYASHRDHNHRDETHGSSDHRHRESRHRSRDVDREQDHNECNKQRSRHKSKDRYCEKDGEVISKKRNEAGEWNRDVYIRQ
Chain of hCav1.2 (P54289 25-956 partner limits assumed): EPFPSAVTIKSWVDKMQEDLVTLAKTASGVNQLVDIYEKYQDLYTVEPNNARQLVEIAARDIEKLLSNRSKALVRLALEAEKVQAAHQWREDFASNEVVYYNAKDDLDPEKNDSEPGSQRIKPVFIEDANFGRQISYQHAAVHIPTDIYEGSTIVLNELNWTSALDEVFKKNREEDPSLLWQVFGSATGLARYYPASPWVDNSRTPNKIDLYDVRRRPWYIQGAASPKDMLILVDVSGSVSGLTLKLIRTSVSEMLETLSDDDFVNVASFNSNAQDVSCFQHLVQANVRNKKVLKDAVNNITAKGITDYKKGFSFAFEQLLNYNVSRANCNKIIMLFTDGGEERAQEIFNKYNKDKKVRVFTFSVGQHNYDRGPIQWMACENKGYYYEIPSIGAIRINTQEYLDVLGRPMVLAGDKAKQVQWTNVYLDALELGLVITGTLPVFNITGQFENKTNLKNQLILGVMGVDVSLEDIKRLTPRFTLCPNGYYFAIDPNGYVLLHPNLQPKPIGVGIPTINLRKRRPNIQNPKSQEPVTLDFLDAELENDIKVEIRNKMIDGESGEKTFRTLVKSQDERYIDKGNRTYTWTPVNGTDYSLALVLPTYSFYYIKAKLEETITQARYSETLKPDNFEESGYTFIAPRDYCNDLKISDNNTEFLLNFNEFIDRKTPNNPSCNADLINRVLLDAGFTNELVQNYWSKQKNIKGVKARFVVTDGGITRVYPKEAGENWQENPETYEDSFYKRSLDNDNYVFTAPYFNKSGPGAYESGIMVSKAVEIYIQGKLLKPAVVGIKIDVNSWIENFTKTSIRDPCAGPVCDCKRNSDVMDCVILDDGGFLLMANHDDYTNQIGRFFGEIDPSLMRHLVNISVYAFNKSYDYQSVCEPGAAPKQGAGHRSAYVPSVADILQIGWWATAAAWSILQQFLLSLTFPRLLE
Chain of hCav1.2 (P54289 957-1103 partner limits assumed): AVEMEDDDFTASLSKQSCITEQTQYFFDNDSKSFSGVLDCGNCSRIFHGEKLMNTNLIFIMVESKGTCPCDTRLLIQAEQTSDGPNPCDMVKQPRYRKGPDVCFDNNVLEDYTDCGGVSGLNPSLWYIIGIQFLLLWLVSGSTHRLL

Cc1cccc(C)c1OCC(C)N (stereo not shown) [mex, mexiletine]
IC50 (hCav1.2; site s01_p1): 372 µM | IC50 (hCav1.2; site s06_p4): 178 µM | IC50 (hCav1.2; site s14_p1): 234 µM | IC50 (hCav1.2; site s16_p3): 251 µM | IC50 (hCav1.2; site s18_p1): 162 µM | nH, Hill slope (hCav1.2; site s01_p1): 0.60 | Peak hCav1.2 Ca2+ current inhibition, Mean (hCav1.2; site s01_p1, 1.00E-04 mol/L): 34.0% | Peak hCav1.2 Ca2+ current inhibition, Mean (hCav1.2; site s01_p1, 1.00E-06 mol/L): 10.1% | log IC50, half-maximal inhibitory concentration (hCav1.2; site s02_p2, corrected for rundown): no inh. | Peak hCav1.2 Ca2+ current inhibition, Mean (hCav1.2; site s02_p2, corrected for rundown, 1.00E-04 mol/L): 1.8% | Peak hCav1.2 Ca2+ current inhibition, Mean (hCav1.2; site s02_p2, corrected for rundown, 1.00E-06 mol/L): -11.1% | nH, Hill slope (hCav1.2; site s06_p4): 0.87 | Peak hCav1.2 Ca2+ current inhibition, Mean (hCav1.2; site s06_p4, 1.00E-04 mol/L): 39.1% | Peak hCav1.2 Ca2+ current inhibition, Mean (hCav1.2; site s06_p4, 1.00E-06 mol/L): 0.5% | log IC50, half-maximal inhibitory concentration (hCav1.2; site s11_p1): no inh. | Peak hCav1.2 Ca2+ current inhibition, Mean (hCav1.2; site s11_p1, 1.00E-04 mol/L): 22.9% | Peak hCav1.2 Ca2+ current inhibition, Mean (hCav1.2; site s11_p1, 1.00E-06 mol/L): 12.9% | nH, Hill slope (hCav1.2; site s14_p1): 2.00 | Peak hCav1.2 Ca2+ current inhibition, Mean (hCav1.2; site s14_p1, 1.00E-04 mol/L): 16.2% | Peak hCav1.2 Ca2+ current inhibition, Mean (hCav1.2; site s14_p1, 1.00E-06 mol/L): -17.7% | nH, Hill slope (hCav1.2; site s16_p3): 0.80 | Peak hCav1.2 Ca2+ current inhibition, Mean (hCav1.2; site s16_p3, 1.00E-04 mol/L): 31.7% | Peak hCav1.2 Ca2+ current inhibition, Mean (hCav1.2; site s16_p3, 1.00E-06 mol/L): -0.3% | nH, Hill slope (hCav1.2; site s18_p1): 1.07 | Peak hCav1.2 Ca2+ current inhibition, Mean (hCav1.2; site s18_p1, 1.00E-04 mol/L): 35.7% | Peak hCav1.2 Ca2+ current inhibition, Mean (hCav1.2; site s18_p1, 1.00E-06 mol/L): 2.3% | IC50 (hERG; hERG K+ current log IC50, s01_p1, CHO, 23 °C): 138 µM | IC50 (hERG; hERG K+ current log IC50, s02_p2, HEK293, 22–26 °C): 110 µM | IC50 (hERG; hERG K+ current log IC50, s03_p2, HEK293, room temperature): 20.4 µM | IC50 (hERG; hERG K+ current log IC50, s04_p3, CHO, room temperature): 47.9 µM | IC50 (hERG; hERG K+ current log IC50, s15_p1, HEK293, 22–23 °C): 24 µM | IC50 (hERG; hERG K+ current log IC50, s16_p3, HEK293, room temperature): 85.1 µM | inhibition at 0.0001 mol/L (hERG; human, hERG K+ current inhibition, Mean, site_platform s07_p5, 1.00E-04 mol/L): 65% | inhibition at 1e-06 mol/L (hERG; human, hERG K+ current inhibition, Mean, site_platform s07_p5, 1.00E-06 mol/L): -10.5% | inhibition at 4 min, 0.0001 mol/L (hERG; human, hERG K+ current inhibition, Mean, site_platform s10_p3, 1.00E-04 mol/L): 42% | inhibition at 4 min, 1e-06 mol/L (hERG; human, hERG K+ current inhibition, Mean, site_platform s10_p3, 1.00E-06 mol/L): -3.5% | inhibition at 7 min, 0.0001 mol/L (hERG; human, hERG K+ current inhibition, Mean, site_platform s11_p1, 1.00E-04 mol/L): 73.7% | inhibition at 0.0001 mol/L (hERG; human, hERG K+ current inhibition, Mean, site_platform s12_p2, 1.00E-04 mol/L): 56.6% | inhibition at 1e-06 mol/L (hERG; human, hERG K+ current inhibition, Mean, site_platform s12_p2, 1.00E-06 mol/L): 0.2% | inhibition at 0.0001 mol/L (hERG; human, hERG K+ current inhibition, Mean, site_platform s13_p2, 1.00E-04 mol/L): 78.6% | inhibition at 1e-06 mol/L (hERG; human, hERG K+ current inhibition, Mean, site_platform s13_p2, 1.00E-06 mol/L): 7.7% | inhibition at 7 min, 0.0001 mol/L (hERG; human, hERG K+ current inhibition, Mean, site_platform s14_p1, 1.00E-04 mol/L): 60.2% | inhibition at 7 min, 1e-06 mol/L (hERG; human, hERG K+ current inhibition, Mean, site_platform s14_p1, 1.00E-06 mol/L): 10.8% | inhibition at 7 min, 1e-06 mol/L (hERG; human, recombinant cells expressing hERG, hERG K+ current inhibition, Mean, site_platform s11_p1, 1.00E-06 mol/L): 29.4% | IC50 (hERG; log IC50, hERG K+ current inhibition, site_platform s07_p5): 72.4 µM | IC50 (hERG; log IC50, hERG K+ current inhibition, site_platform s10_p3): 126 µM | IC50 (hERG; log IC50, hERG K+ current inhibition, site_platform s11_p1): 15.8 µM | IC50 (hERG; log IC50, hERG K+ current inhibition, site_platform s12_p2): 77.6 µM | IC50 (hERG; log IC50, hERG K+ current inhibition, site_platform s13_p2): 34.7 µM | IC50 (hERG; log IC50, hERG K+ current inhibition, site_platform s14_p1): 63.1 µM | hERG K+ current nH, Hill slope (hERG; s01_p1, CHO, 23 °C): 0.78 | hERG K+ current inhibition, Mean, at maximal concentration (hERG; s01_p1, CHO, 23 °C): 46.1% | hERG K+ current inhibition, Mean, at minimal concentration (hERG; s01_p1, CHO, 23 °C): 0.7% | hERG K+ current nH, Hill slope (hERG; s02_p2, HEK293, 22–26 °C): 0.95 | hERG K+ current inhibition, Mean, at maximal concentration (hERG; s02_p2, HEK293, 22–26 °C): 48.2% | hERG K+ current inhibition, Mean, at minimal concentration (hERG; s02_p2, HEK293, 22–26 °C): 1.0% | hERG K+ current nH, Hill slope (hERG; [1]): 0.95 | hERG K+ current inhibition, Mean, at maximal concentration (hERG; [1]): 86.8% | hERG K+ current inhibition, Mean, at minimal concentration (hERG; [1]): 14.6% | hERG K+ current nH, Hill slope (hERG; s04_p3, CHO, room temperature): 0.81 | hERG K+ current inhibition, Mean, at maximal concentration (hERG; s04_p3, CHO, room temperature): 67.4% | hERG K+ current inhibition, Mean, at minimal concentration (hERG; s04_p3, CHO, room temperature): 9.7% | hERG K+ current log IC50 (hERG; s05_p4, HEK293, 22–24 °C): -4.37 log mol/L | hERG K+ current nH, Hill slope (hERG; s05_p4, HEK293, 22–24 °C): 1.45 | hERG K+ current inhibition, Mean, at maximal concentration (hERG; s05_p4, HEK293, 22–24 °C): 75.7% | hERG K+ current nH, Hill slope (hERG; s15_p1, HEK293, 22–23 °C): 0.72 | hERG K+ current inhibition, Mean, at maximal concentration (hERG; s15_p1, HEK293, 22–23 °C): 74.6% | hERG K+ current inhibition, Mean, at minimal concentration (hERG; s15_p1, HEK293, 22–23 °C): 10.3% | hERG K+ current nH, Hill slope (hERG; [2]): 0.76 | hERG K+ current inhibition, Mean, at maximal concentration (hERG; [2]): 52.6% | hERG K+ current inhibition, Mean, at minimal concentration (hERG; [2]): 3.9% | hERG K+ current nH, Hill slope (hERG; s18_p1, CHO, 35 °C): 1.12 | hERG K+ current inhibition, Mean, at maximal concentration (hERG; s18_p1, CHO, 35 °C): 70.4%
